pKd: −log10 of the molar value. Peptide text beside a SMILES is read from it.

The target of the test is Nucleic Acid. The experiment in a line: Dissociation constant against stem loop IIB region of RRE-response element RNA was reported. It counts as nucleic-acid assay, Human immunodeficiency virus 1.
A word on the pKd: it is −log10 of the Kd, conventionally taken in molar units. As for `C[C@H](NC(=O)[C@H](CCC(N)=O)NC(=O)[C@H](CCCNC(=N)N)NC(=O)[C@@H](NC(=O)CCC(=O)O)[C@@H](C)O)C(=O)N[C@@H](CCCNC(=N)N)C(=O)N[C@@H](CCCNC(=N)N)C(=O)N[C@@H](CC(N)=O)C(=O)N[C@@H](CCCNC(=N)N)C(=O)N[C@@H](CCCNC(=N)N)C(=O)N[C@@H](CCCNC(=N)N)C(=O)N[C@@H](CCCNC(=N)N)C(=O)N[C@@H](Cc1c[nH]c2ccccc12)C(=O)N[C@@H](CCCNC(=N)N)C(=O)N[C@@H](CCC(=O)O)C(=O)N[C@@H](CCCNC(=N)N)C(=O)N[C@@H](CCC(N)=O)C(=O)N[C@@H](CCCNC(=N)N)C(=O)NCC(N)=O` (HELM PEPTIDE1{[O=C(O)CCC(=O)[*:2]].T.R.Q.A.R.R.N.R.R.R.R.W.R.E.R.Q.R.G.[am]}$$$$V2.0), the pKd was 8.10.

On to `C[C@H](NC(=O)[C@H](CCC(N)=O)NC(=O)[C@H](CCCNC(=N)N)NC(=O)[C@@H](NC(=O)CCC(=O)O)[C@@H](C)O)C(=O)N[C@@H](CCCNC(=N)N)C(=O)N[C@@H](CCCNC(=N)N)C(=O)N[C@@H](CC(N)=O)C(=O)N[C@@H](CCCNC(=N)N)C(=O)N[C@@H](CCCNC(=N)N)C(=O)N[C@@H](CCCNC(=N)N)C(=O)NCCN(CC(=O)N[C@@H](Cc1c[nH]c2ccccc12)C(=O)N[C@@H](CCCNC(=N)N)C(=O)N[C@@H](CCC(=O)O)C(=O)N[C@@H](CCCNC(=N)N)C(=O)N[C@@H](CCC(N)=O)C(=O)N[C@@H](CCCNC(=N)N)C(N)=O)C(=O)Cn1ccc(N)nc1=O`, for which the pKd was 6.62.

As to `C[C@H](NC(=O)[C@H](CCC(N)=O)NC(=O)[C@H](CCCNC(=N)N)NC(=O)[C@@H](NC(=O)CCC(=O)O)[C@@H](C)O)C(=O)N[C@@H](CCCNC(=N)N)C(=O)N[C@@H](CCCNC(=N)N)C(=O)N[C@@H](CC(N)=O)C(=O)N[C@@H](CCCNC(=N)N)C(=O)N[C@@H](CCCNC(=N)N)C(=O)N[C@@H](CCCNC(=N)N)C(=O)N[C@@H](CCCNC(=N)N)C(=O)N[C@@H](Cc1c[nH]c2ccccc12)C(=O)N[C@@H](CCCNC(=N)N)C(=O)N[C@@H](CCC(=O)O)C(=O)N[C@@H](CCCNC(=N)N)C(=O)N[C@@H](CCC(N)=O)C(=O)NCCN(CC(N)=O)C(=O)Cn1ccc(N)nc1=O` (HELM PEPTIDE1{[O=C(O)CCC(=O)[*:2]].T.R.Q.A.R.R.N.R.R.R.R.W.R.E.R.Q.[NC(=O)CN(CCN[*:1])C(=O)Cn1ccc(N)nc1=O]}$$$$V2.0), the pKd is 7.68.

Compound `C[C@H](NC(=O)[C@H](CCC(N)=O)NC(=O)[C@H](CCCNC(=N)N)NC(=O)[C@@H](NC(=O)CCC(=O)O)[C@@H](C)O)C(=O)N[C@@H](CCCNC(=N)N)C(=O)N[C@@H](CCCNC(=N)N)C(=O)N[C@@H](CC(N)=O)C(=O)N[C@@H](CCCNC(=N)N)C(=O)N[C@@H](CCCNC(=N)N)C(=O)N[C@@H](CCCNC(=N)N)C(=O)N[C@@H](CCCNC(=N)N)C(=O)N[C@@H](Cc1c[nH]c2ccccc12)C(=O)N[C@@H](CCCNC(=N)N)C(=O)N[C@@H](CCC(=O)O)C(=O)N[C@@H](CCCNC(=N)N)C(=O)N[C@@H](CCC(N)=O)C(=O)NCCN(CC(N)=O)C(=O)Cn1cnc2c(N)ncnc21` (HELM PEPTIDE1{[O=C(O)CCC(=O)[*:2]].T.R.Q.A.R.R.N.R.R.R.R.W.R.E.R.Q.[NC(=O)CN(CCN[*:1])C(=O)Cn1cnc2c(N)ncnc21]}$$$$V2.0) gave a pKd of 8.00.

Consider `C[C@H](NC(=O)[C@H](CCC(N)=O)NC(=O)[C@H](CCCNC(=N)N)NC(=O)[C@@H](NC(=O)CCC(=O)O)[C@@H](C)O)C(=O)N[C@@H](CCCNC(=N)N)C(=O)NCCN(CC(=O)N[C@@H](CC(N)=O)C(=O)N[C@@H](CCCNC(=N)N)C(=O)N[C@@H](CCCNC(=N)N)C(=O)N[C@@H](CCCNC(=N)N)C(=O)N[C@@H](CCCNC(=N)N)C(=O)N[C@@H](Cc1c[nH]c2ccccc12)C(=O)N[C@@H](CCCNC(=N)N)C(=O)N[C@@H](CCC(=O)O)C(=O)N[C@@H](CCCNC(=N)N)C(=O)N[C@@H](CCC(N)=O)C(=O)N[C@@H](CCCNC(=N)N)C(N)=O)C(=O)Cn1ccc(N)nc1=O`, for which the pKd was 6.38.

`C[C@H](NC(=O)[C@H](CCC(N)=O)NC(=O)[C@H](CCCNC(=N)N)NC(=O)[C@@H](NC(=O)CCC(=O)O)[C@@H](C)O)C(=O)N[C@@H](CCCNC(=N)N)C(=O)N[C@@H](CCCNC(=N)N)C(=O)N[C@@H](CC(N)=O)C(=O)N[C@@H](CCCNC(=N)N)C(=O)N[C@@H](CCCNC(=N)N)C(=O)N[C@@H](CCCNC(=N)N)C(=O)N[C@@H](CCCNC(=N)N)C(=O)N[C@@H](Cc1c[nH]c2ccccc12)C(=O)N[C@@H](CCCNC(=N)N)C(=O)N[C@@H](CCC(=O)O)C(=O)N[C@@H](CCCNC(=N)N)C(=O)N[C@@H](CCC(N)=O)C(=O)NCC(=O)NCC(N)=O` (HELM PEPTIDE1{[O=C(O)CCC(=O)[*:2]].T.R.Q.A.R.R.N.R.R.R.R.W.R.E.R.Q.G.G.[am]}$$$$V2.0) showed a pKd of 7.38.

The record behind these values is ChEMBL document CHEMBL1133396, “Construction of HIV Rev peptides containing peptide nucleic acid that bind HIV RRE IIB RNA” (Bioorg Med Chem Lett, 2000).
